Reference: the NIST ThermoML archive (doi:10.1021/je7006742)
± gives the expanded uncertainty stated by the source.

Key:
[1] = 101 kPa, Liquid
[2] = xn = mol fraction of the nth substance listed; settings: 101 kPa, Liquid

## O=Cc1ccccc1 [benzaldehyde]
[1]; 298.15 K
  mass density: 1041 ± 2 kg/m3
  viscosity: 1.399 ± 0.13 mPa·s
[1]; 308.15 K
  mass density: 1034 ± 2 kg/m3
  viscosity: 1.224 ± 0.12 mPa·s
[1]; 318.15 K
  mass density: 1027 ± 3 kg/m3
  viscosity: 1.12 ± 0.11 mPa·s

## C=CC#N [acrylonitrile] + O=Cc1ccccc1
[2]; 298.15 K, x1 = 0.182
  mass density: 1022 ± 2 kg/m3
  speed of sound: 1412.7 ± 11 m/s
  viscosity: 1.224 ± 0.12 mPa·s
[2]; 298.15 K, x1 = 0.333
  mass density: 995 ± 2 kg/m3
  speed of sound: 1394.7 ± 11 m/s
  viscosity: 1.079 ± 0.11 mPa·s
[2]; 298.15 K, x1 = 0.462
  mass density: 969 ± 2 kg/m3
  speed of sound: 1353.1 ± 11 m/s
  viscosity: 0.958 ± 0.095 mPa·s
[2]; 298.15 K, x1 = 0.571
  mass density: 940 ± 2 kg/m3
  speed of sound: 1322.4 ± 11 m/s
  viscosity: 0.842 ± 0.085 mPa·s
[2]; 298.15 K, x1 = 0.667
  mass density: 914 ± 2 kg/m3
  speed of sound: 1292.8 ± 11 m/s
  viscosity: 0.74 ± 0.076 mPa·s
[2]; 298.15 K, x1 = 0.75
  mass density: 887 ± 2 kg/m3
  speed of sound: 1259.4 ± 10 m/s
  viscosity: 0.649 ± 0.069 mPa·s
[2]; 298.15 K, x1 = 0.824
  mass density: 863 ± 2 kg/m3
  speed of sound: 1237.6 ± 10 m/s
  viscosity: 0.565 ± 0.061 mPa·s
[2]; 298.15 K, x1 = 0.889
  mass density: 839 ± 2 kg/m3
  speed of sound: 1212 ± 10 m/s
  viscosity: 0.484 ± 0.054 mPa·s
[2]; 298.15 K, x1 = 0.947
  mass density: 816 ± 2 kg/m3
  speed of sound: 1186.8 ± 9.9 m/s
  viscosity: 0.41 ± 0.048 mPa·s
[2]; 298.15 K, x1 = 1
  mass density: 794 ± 2 kg/m3
  viscosity: 0.344 ± 0.042 mPa·s
[2]; 308.15 K, x1 = 0.182
  mass density: 1011 ± 2 kg/m3
  viscosity: 1.071 ± 0.11 mPa·s
[2]; 308.15 K, x1 = 0.333
  mass density: 985 ± 2 kg/m3
  viscosity: 0.941 ± 0.094 mPa·s
[2]; 308.15 K, x1 = 0.462
  mass density: 959 ± 2 kg/m3
  viscosity: 0.827 ± 0.084 mPa·s
[2]; 308.15 K, x1 = 0.571
  mass density: 932 ± 2 kg/m3
  viscosity: 0.724 ± 0.075 mPa·s
[2]; 308.15 K, x1 = 0.667
  mass density: 906 ± 2 kg/m3
  viscosity: 0.63 ± 0.067 mPa·s
[2]; 308.15 K, x1 = 0.75
  mass density: 880 ± 2 kg/m3
  viscosity: 0.55 ± 0.06 mPa·s
[2]; 308.15 K, x1 = 0.824
  mass density: 856 ± 2 kg/m3
  viscosity: 0.478 ± 0.054 mPa·s
[2]; 308.15 K, x1 = 0.889
  mass density: 833 ± 2 kg/m3
  viscosity: 0.416 ± 0.048 mPa·s
[2]; 308.15 K, x1 = 0.947
  mass density: 810 ± 2 kg/m3
  viscosity: 0.358 ± 0.043 mPa·s
[2]; 308.15 K, x1 = 1
  mass density: 788 ± 2 kg/m3
  viscosity: 0.307 ± 0.039 mPa·s
[2]; 318.15 K, x1 = 0.182
  mass density: 1005 ± 3 kg/m3
  viscosity: 0.973 ± 0.096 mPa·s
[2]; 318.15 K, x1 = 0.333
  mass density: 980 ± 3 kg/m3
  viscosity: 0.851 ± 0.086 mPa·s
[2]; 318.15 K, x1 = 0.462
  mass density: 954 ± 2 kg/m3
  viscosity: 0.746 ± 0.077 mPa·s
[2]; 318.15 K, x1 = 0.571
  mass density: 928 ± 2 kg/m3
  viscosity: 0.653 ± 0.069 mPa·s
[2]; 318.15 K, x1 = 0.667
  mass density: 902 ± 2 kg/m3
  viscosity: 0.571 ± 0.062 mPa·s
[2]; 318.15 K, x1 = 0.75
  mass density: 877 ± 2 kg/m3
  viscosity: 0.5 ± 0.056 mPa·s
[2]; 318.15 K, x1 = 0.824
  mass density: 854 ± 2 kg/m3
  viscosity: 0.436 ± 0.05 mPa·s
[2]; 318.15 K, x1 = 0.889
  mass density: 830 ± 2 kg/m3
  viscosity: 0.379 ± 0.045 mPa·s
[2]; 318.15 K, x1 = 0.947
  mass density: 806 ± 2 kg/m3
  viscosity: 0.328 ± 0.041 mPa·s
[2]; 318.15 K, x1 = 1
  mass density: 783 ± 2 kg/m3
  viscosity: 0.284 ± 0.037 mPa·s

## O=CC=Cc1ccccc1 [(E)-3-phenyl-2-propanal]
[1]; 298.15 K
  mass density: 1046 ± 2 kg/m3
  viscosity: 3.478 ± 0.31 mPa·s
[1]; 308.15 K
  mass density: 1039 ± 3 kg/m3
  viscosity: 2.688 ± 0.24 mPa·s
[1]; 318.15 K
  mass density: 1032 ± 3 kg/m3
  viscosity: 2.296 ± 0.21 mPa·s

## O=CC=Cc1ccccc1 [(E)-3-phenyl-2-propanal] + C=CC#N
[2]; 298.15 K, x2 = 0
  mass density: 1046 ± 2 kg/m3
  viscosity: 3.478 ± 0.31 mPa·s
[2]; 298.15 K, x2 = 0.2168
  mass density: 1017 ± 2 kg/m3
  viscosity: 2.014 ± 0.18 mPa·s
[2]; 298.15 K, x2 = 0.217
  speed of sound: 1487.6 ± 12 m/s
[2]; 298.15 K, x2 = 0.3837
  mass density: 990 ± 2 kg/m3
  viscosity: 1.4 ± 0.13 mPa·s
[2]; 298.15 K, x2 = 0.384
  speed of sound: 1433.3 ± 11 m/s
[2]; 298.15 K, x2 = 0.516
  speed of sound: 1403 ± 11 m/s
[2]; 298.15 K, x2 = 0.5163
  mass density: 964 ± 2 kg/m3
  viscosity: 1.02 ± 0.1 mPa·s
[2]; 298.15 K, x2 = 0.624
  speed of sound: 1372 ± 11 m/s
[2]; 298.15 K, x2 = 0.6241
  mass density: 937 ± 2 kg/m3
  viscosity: 0.795 ± 0.081 mPa·s
[2]; 298.15 K, x2 = 0.7135
  mass density: 911 ± 2 kg/m3
  viscosity: 0.646 ± 0.068 mPa·s
[2]; 298.15 K, x2 = 0.714
  speed of sound: 1330.3 ± 11 m/s
[2]; 298.15 K, x2 = 0.7889
  mass density: 886 ± 2 kg/m3
  viscosity: 0.56 ± 0.061 mPa·s
[2]; 298.15 K, x2 = 0.789
  speed of sound: 1288.7 ± 10 m/s
[2]; 298.15 K, x2 = 0.853
  speed of sound: 1251.2 ± 10 m/s
[2]; 298.15 K, x2 = 0.8532
  mass density: 862 ± 2 kg/m3
  viscosity: 0.474 ± 0.053 mPa·s
[2]; 298.15 K, x2 = 0.9088
  mass density: 839 ± 2 kg/m3
  viscosity: 0.423 ± 0.049 mPa·s
[2]; 298.15 K, x2 = 0.909
  speed of sound: 1224.1 ± 10 m/s
[2]; 298.15 K, x2 = 0.957
  speed of sound: 1186.8 ± 9.9 m/s
[2]; 298.15 K, x2 = 0.9573
  mass density: 817 ± 2 kg/m3
  viscosity: 0.388 ± 0.046 mPa·s
[2]; 308.15 K, x2 = 0
  mass density: 1039 ± 3 kg/m3
  viscosity: 2.688 ± 0.24 mPa·s
[2]; 308.15 K, x2 = 0.2168
  mass density: 1011 ± 2 kg/m3
  viscosity: 1.698 ± 0.16 mPa·s
[2]; 308.15 K, x2 = 0.3837
  mass density: 985 ± 2 kg/m3
  viscosity: 1.215 ± 0.12 mPa·s
[2]; 308.15 K, x2 = 0.5163
  mass density: 958 ± 2 kg/m3
  viscosity: 0.906 ± 0.091 mPa·s
[2]; 308.15 K, x2 = 0.6241
  mass density: 931 ± 2 kg/m3
  viscosity: 0.724 ± 0.075 mPa·s
[2]; 308.15 K, x2 = 0.7135
  mass density: 905 ± 2 kg/m3
  viscosity: 0.603 ± 0.065 mPa·s
[2]; 308.15 K, x2 = 0.7889
  mass density: 881 ± 2 kg/m3
  viscosity: 0.519 ± 0.057 mPa·s
[2]; 308.15 K, x2 = 0.8532
  mass density: 856 ± 2 kg/m3
  viscosity: 0.441 ± 0.051 mPa·s
[2]; 308.15 K, x2 = 0.9088
  mass density: 833 ± 2 kg/m3
  viscosity: 0.405 ± 0.047 mPa·s
[2]; 308.15 K, x2 = 0.9573
  mass density: 810 ± 2 kg/m3
  viscosity: 0.359 ± 0.044 mPa·s
[2]; 318.15 K, x2 = 0
  mass density: 1032 ± 3 kg/m3
  viscosity: 2.296 ± 0.21 mPa·s
[2]; 318.15 K, x2 = 0.217
  mass density: 1009 ± 3 kg/m3
  viscosity: 1.456 ± 0.14 mPa·s
[2]; 318.15 K, x2 = 0.384
  mass density: 983 ± 3 kg/m3
  viscosity: 1.078 ± 0.11 mPa·s
[2]; 318.15 K, x2 = 0.516
  mass density: 957 ± 2 kg/m3
  viscosity: 0.83 ± 0.084 mPa·s
[2]; 318.15 K, x2 = 0.624
  mass density: 930 ± 2 kg/m3
  viscosity: 0.684 ± 0.072 mPa·s
[2]; 318.15 K, x2 = 0.714
  mass density: 904 ± 2 kg/m3
  viscosity: 0.581 ± 0.063 mPa·s
[2]; 318.15 K, x2 = 0.789
  mass density: 878 ± 2 kg/m3
  viscosity: 0.457 ± 0.052 mPa·s
[2]; 318.15 K, x2 = 0.853
  mass density: 854 ± 2 kg/m3
  viscosity: 0.43 ± 0.05 mPa·s
[2]; 318.15 K, x2 = 0.909
  mass density: 830 ± 2 kg/m3
  viscosity: 0.394 ± 0.047 mPa·s
[2]; 318.15 K, x2 = 0.957
  mass density: 805 ± 2 kg/m3
  viscosity: 0.348 ± 0.043 mPa·s
